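These data come from cells grown in 96-well plates and exposed to compound for 48 hours at five concentrations. GI50 = concentration required for 50% inhibition of growth.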 Active and inactive are the calls of the source. No stated cut-off is given here; in the data, active = GI50 up to about 1.1 µM and inactive = higher.
Legend:
Test in all cases: growth of human tumour cells (NCI), 48 h
HOP-92 = system: HOP-92
T47D = system: T47D
SK-MEL-5 = system: SK-MEL-5
A549 = system: A549
SF-295 = system: SF-295
MDA-MB-231 = system: MDA-MB-231
RXF 393 = system: RXF 393
NCI-H460 = system: NCI-H460
MDA-MB-435 = system: MDA-MB-435
OVCAR-3 = system: OVCAR-3
Hs-578T = system: Hs-578T
OVCAR-4 = system: OVCAR-4
SN12C = system: SN12C
M19-MEL = system: M19-MEL
KM-20L2 = system: KM-20L2
DMS-273 = system: DMS-273
DLD-1 = system: DLD-1
DMS-114 = system: DMS-114
UACC-62 = system: UACC-62
BT-549 = system: BT-549

COC(=O)CCC(=O)c1ccc2c(c1)CCC2
GI50 (HOP-92): > 100 µM (inactive) | GI50 (T47D): > 100 µM (inactive) | GI50 (SK-MEL-5): > 100 µM (inactive) | GI50 (A549): > 100 µM (inactive) | GI50 (SF-295): > 100 µM (inactive) | GI50 (MDA-MB-231): > 100 µM (inactive) | GI50 (RXF 393): > 100 µM (inactive) | GI50 (NCI-H460): > 100 µM (inactive) | GI50 (MDA-MB-435): > 100 µM (inactive) | GI50 (OVCAR-3): > 100 µM (inactive) | GI50 (Hs-578T): > 100 µM (inactive) | GI50 (OVCAR-4): > 100 µM (inactive)

C=C1C(=O)O[C@@H]2[C@H](O)[C@@H](C)[C@@H]3C=CC(=O)[C@@]3(C)[C@H](OC(=O)C=C(C)C)[C@H]12
GI50 (HOP-92): 0.944 µM (active) | GI50 (SN12C): 0.877 µM (active) | GI50 (SK-MEL-5): 1.69 µM (inactive) | GI50 (A549): 2.94 µM (inactive) | GI50 (SF-295): 2.8 µM (inactive) | GI50 (M19-MEL): 1.12 µM (active) | GI50 (KM-20L2): 1.66 µM (inactive) | GI50 (DMS-273): 1.48 µM (inactive) | GI50 (NCI-H460): 2.11 µM (inactive) | GI50 (DLD-1): 0.277 µM (active) | GI50 (OVCAR-3): 0.895 µM (active) | GI50 (DMS-114): 2.4 µM (inactive) | GI50 (UACC-62): 0.625 µM (active) | GI50 (OVCAR-4): 1.98 µM (inactive)

O=C(O)c1ccccc1CN1CCCC(C(=O)O)C1 (stereo not drawn)
GI50 (HOP-92): > 100 µM (inactive) | GI50 (SN12C): > 100 µM (inactive) | GI50 (T47D): > 100 µM (inactive) | GI50 (SK-MEL-5): > 100 µM (inactive) | GI50 (A549): > 100 µM (inactive) | GI50 (SF-295): > 100 µM (inactive) | GI50 (MDA-MB-231): > 100 µM (inactive) | GI50 (RXF 393): > 100 µM (inactive) | GI50 (NCI-H460): > 100 µM (inactive) | GI50 (MDA-MB-435): > 100 µM (inactive) | GI50 (OVCAR-3): > 100 µM (inactive) | GI50 (Hs-578T): > 100 µM (inactive) | GI50 (UACC-62): > 100 µM (inactive) | GI50 (BT-549): > 100 µM (inactive) | GI50 (OVCAR-4): > 100 µM (inactive)

COC(=O)C(NC(=O)c1ccccc1)C(c1c(O)cc(O)cc1O)P(=O)(OC)OC (stereo not drawn)
GI50 (HOP-92): > 100 µM (inactive) | GI50 (SN12C): > 100 µM (inactive) | GI50 (SK-MEL-5): > 100 µM (inactive) | GI50 (A549): > 100 µM (inactive) | GI50 (SF-295): > 100 µM (inactive) | GI50 (M19-MEL): > 100 µM (inactive) | GI50 (KM-20L2): > 100 µM (inactive) | GI50 (DMS-273): 42.5 µM (inactive) | GI50 (NCI-H460): 95.3 µM (inactive) | GI50 (DLD-1): > 100 µM (inactive) | GI50 (DMS-114): > 100 µM (inactive) | GI50 (UACC-62): 6.73 µM (inactive) | GI50 (OVCAR-4): > 100 µM (inactive)

O=C1C[C@@H]2[C@@H](C=CC23CCCC3)N1O
GI50 (SN12C): > 100 µM (inactive) | GI50 (SK-MEL-5): > 100 µM (inactive) | GI50 (A549): > 100 µM (inactive) | GI50 (SF-295): > 100 µM (inactive) | GI50 (M19-MEL): > 100 µM (inactive) | GI50 (KM-20L2): > 100 µM (inactive) | GI50 (DMS-273): > 100 µM (inactive) | GI50 (RXF 393): > 100 µM (inactive) | GI50 (NCI-H460): > 100 µM (inactive) | GI50 (DLD-1): > 100 µM (inactive) | GI50 (OVCAR-3): > 100 µM (inactive) | GI50 (DMS-114): > 100 µM (inactive) | GI50 (UACC-62): > 100 µM (inactive) | GI50 (OVCAR-4): > 100 µM (inactive)

Cc1ccc(-c2n[nH]c(=O)n2/N=C\c2ccccc2)cc1
GI50 (HOP-92): 21 µM (inactive) | GI50 (SN12C): 34.5 µM (inactive) | GI50 (T47D): 36.6 µM (inactive) | GI50 (SK-MEL-5): 75.2 µM (inactive) | GI50 (A549): > 88.5 µM (inactive) | GI50 (SF-295): 28.2 µM (inactive) | GI50 (MDA-MB-231): 60.5 µM (inactive) | GI50 (RXF 393): 24.7 µM (inactive) | GI50 (NCI-H460): 33.6 µM (inactive) | GI50 (MDA-MB-435): > 100 µM (inactive) | GI50 (OVCAR-3): > 84.1 µM (inactive) | GI50 (Hs-578T): 23.7 µM (inactive) | GI50 (UACC-62): 46.8 µM (inactive) | GI50 (BT-549): 10.1 µM (inactive) | GI50 (OVCAR-4): 61.5 µM (inactive)

Cc1ccn2c(=O)cc(-c3ccccc3)nc2c1
GI50 (HOP-92): 74 µM (inactive) | GI50 (SN12C): 93.8 µM (inactive) | GI50 (T47D): 49.7 µM (inactive) | GI50 (SK-MEL-5): > 100 µM (inactive) | GI50 (A549): > 100 µM (inactive) | GI50 (SF-295): > 100 µM (inactive) | GI50 (MDA-MB-231): > 100 µM (inactive) | GI50 (RXF 393): > 100 µM (inactive) | GI50 (NCI-H460): > 100 µM (inactive) | GI50 (MDA-MB-435): > 10 µM (inactive) | GI50 (OVCAR-3): > 100 µM (inactive) | GI50 (Hs-578T): > 100 µM (inactive) | GI50 (UACC-62): 18.7 µM (inactive) | GI50 (BT-549): > 100 µM (inactive) | GI50 (OVCAR-4): > 100 µM (inactive)

CC1=C[C@@H]2[C@@H](CC(CO)=C[C@H]3[C@@H]4C(C)(C)[C@]4(OCC(C)C)[C@H](OCC(C)C)[C@@H](C)[C@]23O)C1=O
GI50 (HOP-92): 1.44 µM (inactive) | GI50 (SN12C): 1.73 µM (inactive) | GI50 (T47D): 2.16 µM (inactive) | GI50 (SK-MEL-5): 1.11 µM (active) | GI50 (A549): 0.578 µM (active) | GI50 (SF-295): 0.92 µM (active) | GI50 (MDA-MB-231): 1.39 µM (inactive) | GI50 (RXF 393): 1.54 µM (inactive) | GI50 (NCI-H460): 0.465 µM (active) | GI50 (MDA-MB-435): 0.426 µM (active) | GI50 (OVCAR-3): 2.17 µM (inactive) | GI50 (Hs-578T): 0.9 µM (active) | GI50 (UACC-62): 1.43 µM (inactive) | GI50 (BT-549): 1.14 µM (inactive) | GI50 (OVCAR-4): 4.28 µM (inactive)
